Like-named read-outs stand apart in the source and are kept apart here.

Assay [1] addresses T1, CA IX (Homo sapiens, UniProt Q16790). Description: biochemical.
Assay [2] has as its target T1, CA IX. To be noted: cited from earlier work.
The mark [3] stands for this setting: experimental value from the library Ki (IDs A…, B…), values equal log10 of Ki in nM, read-out: pKi (exp.) (converted).
[4] abbreviates: observed Ki of library compounds (IDs A…, B…), ref ChEMBL and BindingDB, read-out: Ki.
Setting [5] is: experimental value used for the QSPR model, library compounds (IDs A…, B…), equals log10 of Ki in nM, read-out: pKi (exp.) (converted).
Setting [6] is: read-out: pKi (exp.) (converted).
Where [7] appears, read: library compounds with IDs A… and B…, from observed Ki (nM), read-out: pKi (exp.) (converted).
Where [8] appears, read: library compounds with IDs A… and B…, observed Ki, ref ChEMBL, BindingDB, read-out: Ki.
[9] abbreviates: experimental value used for the QSPR model, library compounds (IDs A…, B…), equals log10 of Ki in nM.
Where [10] appears, read: library compounds with IDs A… and B…, from observed Ki (nM).

For the molecule `CC(=O)[C@H]1NN(c2ccccc2)[C@H]([C@H](C#N)C(=O)Nc2ccc(S(N)(=O)=O)cc2)S1` [A0013], the Ki on CA IX [1] (setting [3]) and at CA IX [2] (setting [4]) was 0.33 nM each time. `NS(=O)(=O)Nc1ccc(NC(=O)Nc2ccc(Cl)cc2)cc1` [A0149]: the Ki at CA IX [1] (setting [5]) and on CA IX [2] (setting [4]) was 3 nM each time. Consider `NS(=O)(=O)c1nnc(NC(=O)[C@]23C[C@H]4C[C@H](C[C@H](C4)C2)C3)s1` [A0389], for which the Ki on CA IX [1] (setting [6]) and on CA IX [2] (read-out: Ki) was 6.4 nM each time.

For `C[C@H](Nc1nc(NCc2ccc(S(N)(=O)=O)cc2)nc(N[C@H](C)C(=O)O)n1)C(=O)O` [A0552], the figures for the Ki at CA IX [1] (setting [6]) and on CA IX [2] (read-out: Ki) were 8.49 nM and 8.5 nM, respectively. As for `CN1N[C@@H](S(N)(=O)=O)S[C@H]1NC(=O)CCSSCCC(=O)/N=c1\sc(S(N)(=O)=O)nn1C` [A0620], the Ki on CA IX [1] (setting [3]) is 9.29 nM; at CA IX [2] (setting [4]), 9.3 nM. For the molecule `N#C[C@H]1C(COc2ccc(S(N)(=O)=O)cc2)=NON1O` [A0707], the Ki on CA IX [1] (setting [7]) and on CA IX [2] (setting [8]) was 11.3 nM each time. For `NS(=O)(=O)c1ccc(C(=O)NNC(=O)Nc2ccc([C@]34C[C@H]5C[C@H](C[C@H](C5)C3)C4)cc2)cc1` [A0952], the Ki at CA IX [1] (setting [6]) and at CA IX [2] (read-out: Ki) was 24 nM throughout. Consider `C[C@@H](Sc1nc(-c2ccc(Cl)c(F)c2)c(C#N)c(=O)[nH]1)C(=O)Nc1ccc(S(N)(=O)=O)cc1` [A1157], for which the Ki at CA IX [1] (setting [3]) and at CA IX [2] (setting [4]) was 37 nM throughout. `NS(=O)(=O)OC[C@H]1O[C@H](O)[C@H](O)[C@@H](O)[C@H]1O` [A1346]: the Ki is 61.9 nM on CA IX [1] (setting [3]) and 62 nM at CA IX [2] (setting [4]).

As for `C[C@]12CC[C@@H](OS(N)(=O)=O)CC1=C[C@@H](O)[C@@H]1[C@@H]2CC[C@]2(C)C(=O)CC[C@@H]12` [A1368], the Ki on CA IX [1] and on CA IX [2] was 65 nM each time.

On to `NOS(=O)(=O)N[C@H]1C=C[C@H](O)[C@@H](CO)O1` [A1502], for which the Ki was 84.9 nM on CA IX [1] (setting [3]) and 85 nM at CA IX [2] (setting [4]). Consider `NOS(=O)(=O)N[C@H]1C=C[C@H](O)CO1` [A1544], for which the Ki on CA IX [1] (setting [6]) and on CA IX [2] (read-out: Ki) was 91 nM each time. Turning to `CCCCC(=O)OC[C@H]1O[C@@H](n2cc(-c3ccc(S(N)(=O)=O)cc3)nn2)[C@H](OC(=O)CCCC)[C@@H](OC(=O)CCCC)[C@@H]1OC(=O)CCCC` [A2148], on CA IX [1] (setting [9]), the “log10 of Ki in nM” value worked out at 2.978. Turning to `NC(=S)NNC(=O)c1ccncc1` [A2157], the “log10 of Ki in nM” value at CA IX [1] (setting [10]) is listed as 2.988.

`Nc1nc(N)c2nc(CNCCc3ccc(S(=O)(=O)O)cc3)cnc2n1` [A2175]: the Ki on CA IX [1] (setting [3]) is 1000 nM. As for `CC(C)CCC[C@@H](C)[C@H]1CC[C@@H]2[C@@H]1CC[C@H]1[C@H]2CC=C2C[C@@H](OS(N)(=O)=O)CC[C@@]21C` [A2177], the Ki on CA IX [1] (setting [7]) is 1000 nM. With `NS(=O)(=O)c1ccc2nc(-n3cc(C=O)c(-c4ccc(F)cc4)n3)sc2c1` [A2181], the “log10 of Ki in nM” value on CA IX [1] (setting [9]) was determined as 3.009. On the same count and under the same terms, as for `Cc1ccc(NC(=S)NNC(=O)c2ccccc2O)cc1` [A2191], the figure is 3.095. In the case of `C=CCOc1cc(=S)oc2ccccc12` [A2239], at CA IX [1] (setting [10]), the “log10 of Ki in nM” value is 3.483. On to `O=C(Cc1ccccc1Br)Oc1ccc2c(c1)OS(=O)(=O)C=C2` [A2451], for which, at CA IX [1] (setting [5]), the Ki was 10000 nM. As for `CCOC(=O)c1cc(S(N)(=O)=O)c(SSc2cc(Cl)c(C(=O)OCC)cc2S(N)(=O)=O)cc1Cl` [A2456], the Ki on CA IX [1] (setting [6]) was 10000 nM. On to `Oc1ccccc1/C=N/CCCC/N=C/c1ccccc1O` [A2462], for which the “log10 of Ki in nM” value on CA IX [1] (setting [9]) worked out at 4.021.

Consider `NS(=O)(=O)OCCCCOS(N)(=O)=O` [A2532], for which the “log10 of Ki in nM” value at CA IX [1] is 4.732.

For the molecule `CC(C)(C)OC(=O)N(CCCCN(CCCNC(=O)C(F)(F)F)C(=O)OC(C)(C)C)CCCNC(=O)C(F)(F)F` [A2554], the “log10 of Ki in nM” value at CA IX [1] (setting [10]) came to 5.093. With `COC(=O)[C@H]1C[C@H](OS(N)(=O)=O)CN1S(=O)(=O)[C@H]1O[C@H](COC(C)=O)[C@@H](OC(C)=O)[C@H](OC(C)=O)[C@H]1OC(C)=O` [B0015], the Ki at CA IX [1] (setting [7]) and at CA IX [2] (setting [8]) was 2 nM throughout. Consider `NS(=O)(=O)c1ccc(-n2cc(/C=N/Nc3nc(-c4cc5cc(Cl)ccc5oc4=O)cs3)c(-c3ccc(F)cc3)n2)cc1` [B0019], for which the Ki on CA IX [1] (setting [3]) and on CA IX [2] (setting [4]) was 2.5 nM each time. For the molecule `NS(=O)(=O)c1ccc(-n2cc(-c3ccc(Br)cc3)c3c2ncn2nc4c5ccccc5nc-4nc32)cc1` [B0025], the “log10 of Ki in nM” value at CA IX [1] (setting [9]) amounted to 0.431. Regarding `NS(=O)(=O)c1ccc(-n2cc(-c3ccc(Br)cc3)c3c2ncn2nnnc32)cc1` [B0028], the “log10 of Ki in nM” value at CA IX [1] (setting [10]) is on record as 0.447. As for `COc1ccc(-c2cnc(C3CCC3)o2)cc1S(N)(=O)=O` [B0034], the “log10 of Ki in nM” value at CA IX [1] (experimental value from the library Ki (IDs A…, B…), values equal log10 of Ki in nM) amounted to 0.491. On to `CC(=O)N1C(=O)/C(=N\n2cnc3c(c(-c4ccc(Br)cc4)cn3-c3ccc(S(N)(=O)=O)cc3)c2=N)c2ccccc21` [B0037], for which the “log10 of Ki in nM” value on CA IX [1] (setting [9]) was 0.491.

Source of the values: publication PMC6151961 (Journal of Enzyme Inhibition and Medicinal Chemistry, 2018).
